Experimental data from ChEMBL document CHEMBL4706477, “Synthesis and Biological Evaluation of Calothrixins B and their Deoxygenated Analogues” (J Med Chem, 2018).
Active and inactive are the calls of the source. The rule behind the calls is not given here.

Tests used:
HeLa = assay: cells; conditions: Homo sapiens, 48 h
Description: Antiproliferative activity against human HeLa cells assessed as reduction in cell viability incubated for 48 hrs by sulphorhodamine B assay

SiHa = assay: cells; conditions: Homo sapiens, 48 h
Description: Antiproliferative activity against human SiHa cells assessed as reduction in cell viability incubated for 48 hrs by sulphorhodamine B assay

MCF7 = assay: cells; conditions: Homo sapiens, MCF7, 48 h
Description: Antiproliferative activity against human MCF7 cells assessed as reduction in cell viability incubated for 48 hrs by sulphorhodamine B assay

HCT-116 [1] = assay: cells; conditions: Homo sapiens, HCT-116, 48 h
Description: Antiproliferative activity against human HCT-116 cells assessed as reduction in cell viability incubated for 48 hrs by sulphorhodamine B assay

U-251 = assay: cells; conditions: Homo sapiens, U-251, 48 h
Description: Antiproliferative activity against human U-251 cells assessed as reduction in cell viability incubated for 48 hrs by sulphorhodamine B assay

NCI-H460 = assay: cells; conditions: Homo sapiens, NCI-H460, 48 h
Description: Antiproliferative activity against human NCI-H460 cells assessed as reduction in cell viability incubated for 48 hrs by sulphorhodamine B assay

MDA-MB-231 = assay: cells; conditions: Homo sapiens, MDA-MB-231, 48 h
Description: Antiproliferative activity against human MDA-MB-231 cells assessed as reduction in cell viability incubated for 48 hrs by sulphorhodamine B assay

Jurkat = assay: cells; conditions: Homo sapiens, 48 h
Description: Antiproliferative activity against human Jurkat cells assessed as reduction in cell viability incubated for 48 hrs by sulphorhodamine B assay

HCT-116 [2] = assay: cells; conditions: Homo sapiens, HCT-116, 48 h; remark: listed apart in the source
Description: Antiproliferative activity against human HCT-116 p53-/- cells assessed as reduction in cell viability incubated for 48 hrs by sulphorhodamine B assay

[3] = molecular target: T1, DNA topoisomerase 2-alpha (Homo sapiens, UniProt P11388); assay: Inhibition of recombinant human topoisomerase 2 assessed as decrease in relaxation of supercoiled pBlue-Script KS(+) plasmid DNA at 40 uM incubated for 30 mins by ethidium bromide staining based gel electrophoresis method relative to control
T1 sequence (P11388 whole entry): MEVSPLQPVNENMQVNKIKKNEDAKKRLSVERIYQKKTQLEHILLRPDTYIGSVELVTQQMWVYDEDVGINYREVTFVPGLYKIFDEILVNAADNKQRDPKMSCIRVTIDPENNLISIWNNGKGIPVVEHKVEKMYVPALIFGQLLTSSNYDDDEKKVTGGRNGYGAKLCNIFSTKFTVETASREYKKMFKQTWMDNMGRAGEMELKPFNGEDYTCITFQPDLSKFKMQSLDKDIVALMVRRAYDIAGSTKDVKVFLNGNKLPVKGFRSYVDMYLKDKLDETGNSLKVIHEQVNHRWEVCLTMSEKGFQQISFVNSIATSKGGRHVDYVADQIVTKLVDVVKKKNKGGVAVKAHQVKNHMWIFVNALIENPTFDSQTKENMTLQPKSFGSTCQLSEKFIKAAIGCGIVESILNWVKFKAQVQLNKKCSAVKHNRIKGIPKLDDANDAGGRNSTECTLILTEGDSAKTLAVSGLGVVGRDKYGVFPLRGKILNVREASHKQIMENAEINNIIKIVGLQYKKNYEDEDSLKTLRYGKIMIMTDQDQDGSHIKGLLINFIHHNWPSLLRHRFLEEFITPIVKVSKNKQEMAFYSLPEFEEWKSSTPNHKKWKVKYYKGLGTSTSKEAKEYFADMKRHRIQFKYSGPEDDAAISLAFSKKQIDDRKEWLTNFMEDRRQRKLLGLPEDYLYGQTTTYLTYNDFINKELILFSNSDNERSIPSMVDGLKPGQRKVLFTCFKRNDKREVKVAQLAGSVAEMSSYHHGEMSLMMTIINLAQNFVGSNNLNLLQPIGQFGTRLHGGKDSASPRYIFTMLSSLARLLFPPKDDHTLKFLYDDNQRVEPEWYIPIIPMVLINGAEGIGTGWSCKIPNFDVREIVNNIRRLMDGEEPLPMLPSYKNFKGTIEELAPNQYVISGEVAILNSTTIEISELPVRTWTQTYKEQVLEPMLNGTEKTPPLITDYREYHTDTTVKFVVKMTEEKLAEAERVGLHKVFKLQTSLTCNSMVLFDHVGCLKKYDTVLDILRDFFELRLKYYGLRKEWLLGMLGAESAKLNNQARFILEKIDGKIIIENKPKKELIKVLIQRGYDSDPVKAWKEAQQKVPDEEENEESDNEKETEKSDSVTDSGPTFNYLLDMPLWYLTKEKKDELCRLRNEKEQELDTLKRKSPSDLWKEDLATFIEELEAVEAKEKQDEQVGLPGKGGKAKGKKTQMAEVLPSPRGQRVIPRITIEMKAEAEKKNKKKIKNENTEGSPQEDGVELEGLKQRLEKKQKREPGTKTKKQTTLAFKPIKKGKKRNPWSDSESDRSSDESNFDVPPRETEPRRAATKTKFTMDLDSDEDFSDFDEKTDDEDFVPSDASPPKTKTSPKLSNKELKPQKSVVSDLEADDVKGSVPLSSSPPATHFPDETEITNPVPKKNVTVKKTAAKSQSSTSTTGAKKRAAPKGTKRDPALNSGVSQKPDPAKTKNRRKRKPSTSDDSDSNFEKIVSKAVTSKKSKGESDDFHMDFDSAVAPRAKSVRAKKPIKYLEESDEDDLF

HEK293 = assay: Antiproliferative activity against human HEK293 cells assessed as reduction in cell viability incubated for 48 hrs by sulphorhodamine B assay; type: functional
A549 = assay: Antiproliferative activity against human A549 cells assessed as reduction in cell viability incubated for 48 hrs by sulphorhodamine B assay; type: functional
[4] = molecular target: T1, DNA topoisomerase 2-alpha; assay: Inhibition of recombinant human topoisomerase 2 assessed as decrease in relaxation of supercoiled pBlue-Script KS(+) plasmid DNA at 200 uM incubated for 30 mins by ethidium bromide staining based gel electrophoresis method
[5] = molecular target: T1, DNA topoisomerase 2-alpha; assay: Inhibition of recombinant human topoisomerase 2 assessed as decrease in relaxation of supercoiled pBlue-Script KS(+) plasmid DNA incubated for 30 mins by ethidium bromide staining based gel electrophoresis method
[6] = molecular target: T1, DNA topoisomerase 2-alpha; assay: Inhibition of human topoisomerase 2 assessed as inhibition of etoposide-induced DNA cleavage complex formation by measuring linear DNA formation at 30 to 50 uM incubated for 30 mins using pRYG DNA as substrate by agarose gel electrophoresis analysis; conditions: dose 30-50 µM
[7] = molecular target: T2, DNA topoisomerase 1 (Homo sapiens) (UniProt P11387); assay: Inhibition of human topoisomerase 1 assessed as induction of negative supercoiled DNA using relaxed pBlue-Script KS(+) plasmid DNA as substrate measured after 15 mins by agarose gel electrophoresis analysis; conditions: dose 60-100 µM
T2 sequence (whole entry): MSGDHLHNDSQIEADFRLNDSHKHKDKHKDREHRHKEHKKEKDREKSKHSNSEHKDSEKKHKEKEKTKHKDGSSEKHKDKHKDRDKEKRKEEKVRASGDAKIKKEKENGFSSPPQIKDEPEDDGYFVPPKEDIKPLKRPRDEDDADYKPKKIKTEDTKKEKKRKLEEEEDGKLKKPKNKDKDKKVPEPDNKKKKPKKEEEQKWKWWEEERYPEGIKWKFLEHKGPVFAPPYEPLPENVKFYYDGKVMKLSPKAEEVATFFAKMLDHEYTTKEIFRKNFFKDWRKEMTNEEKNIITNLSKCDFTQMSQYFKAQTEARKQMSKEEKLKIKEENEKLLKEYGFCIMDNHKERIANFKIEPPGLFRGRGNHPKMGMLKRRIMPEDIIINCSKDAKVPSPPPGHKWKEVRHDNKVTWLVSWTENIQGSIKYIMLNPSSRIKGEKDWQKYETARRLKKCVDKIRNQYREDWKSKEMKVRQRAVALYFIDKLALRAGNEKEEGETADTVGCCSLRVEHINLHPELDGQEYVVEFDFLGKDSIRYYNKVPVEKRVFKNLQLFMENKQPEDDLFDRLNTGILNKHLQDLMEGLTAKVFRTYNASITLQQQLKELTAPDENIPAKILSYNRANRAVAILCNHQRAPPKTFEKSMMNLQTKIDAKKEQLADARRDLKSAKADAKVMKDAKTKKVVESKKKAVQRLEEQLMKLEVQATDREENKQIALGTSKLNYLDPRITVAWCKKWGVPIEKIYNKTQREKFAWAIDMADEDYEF

Calf thymus DNA = assay: Binding affinity to calf thymus DNA assessed as hypochromic effect at 3*10^-5 mol/L by double beam UV-Vis spectroscopic analysis; type: nucleic-acid assay; conditions: Bos taurus

GI50 (HeLa)	GI50 (MCF7)	GI50 (HCT-116 [1])	GI50 (U-251)	GI50 (NCI-H460)	GI50 (MDA-MB-231)	GI50 (Jurkat)	GI50 (HCT-116 [2])	inhibition [3]	GI50 (A549)	inhibition [4]	IC50 [5]	IC90 [5]	inhibition [5]	inhibition [6]	Activity [7]	Activity (Calf thymus DNA)	Compound	GI50 (SiHa)	GI50 (HEK293)
800 nM	1000 nM	1000 nM	1050 nM	1000 nM	1000 nM												Nc1nc2ccccc2c2cc3[nH]c4ccccc4c3cc12	1050 nM	
390 nM	600 nM	330 nM	1830 nM	> 4000 nM	310 nM	> 4000 nM	> 4000 nM										COc1cccc2c3c(cnc12)C(=O)c1c([nH]c2ccccc12)C3=O	> 4000 nM	
> 4000 nM	360 nM	> 4000 nM	> 4000 nM	> 4000 nM	> 4000 nM	> 4000 nM	> 4000 nM										COc1cc2ncc3c(c2cc1OC)C(=O)c1[nH]c2ccccc2c1C3=O	> 4000 nM	
70 nM	530 nM	1500 nM	2830 nM	1400 nM	360 nM	3550 nM	2600 nM										O=C1c2[nH]c3ccccc3c2C(=O)c2cnc3cc(Cl)ccc3c21	1600 nM	
> 4000 nM	> 4000 nM	630 nM	> 4000 nM	> 4000 nM	> 4000 nM	> 4000 nM	> 4000 nM										COc1ccc2ncc3c(c2c1)C(=O)c1[nH]c2ccccc2c1C3=O	> 4000 nM	
1400 nM	1000 nM	1050 nM	650 nM	1050 nM	1100 nM												Nc1nc2ccccc2c2cc3c(cc12)[nH]c1ccccc13	1300 nM	
2000 nM	1350 nM	> 4000 nM	> 4000 nM	> 4000 nM	> 4000 nM	> 4000 nM	> 4000 nM										O=C1c2[nH]c3ccccc3c2C(=O)c2cnc3cc(F)c(Cl)cc3c21	> 4000 nM	
500 nM	350 nM	420 nM	500 nM	700 nM	170 nM	1400 nM	1500 nM										O=C1c2[nH]c3ccccc3c2C(=O)c2cnc3ccc(Cl)cc3c21	1670 nM	
360 nM	> 4000 nM	15000 nM	> 4000 nM	10500 nM	> 4000 nM	> 4000 nM		98%	> 4000 nM	100%	19100 nM	28800 nM	Dose-dependent effect	Active	Dose-dependent effect		Cc1c2cnc3ccccc3c2cc2[nH]c3ccccc3c12	> 4000 nM	> 4000 nM
> 4000 nM	800 nM	3500 nM	> 4000 nM	> 4000 nM	> 4000 nM	> 4000 nM	> 4000 nM										O=C1c2cnc3cccc(Cl)c3c2C(=O)c2[nH]c3ccccc3c21	> 4000 nM	
500 nM	500 nM	1200 nM	1500 nM	730 nM	200 nM	2600 nM	2000 nM										O=C1c2cnc3c(Cl)cc(Cl)cc3c2C(=O)c2[nH]c3ccccc3c21	1800 nM	
210 nM	600 nM	1500 nM	2000 nM	1270 nM	1000 nM	1500 nM	2600 nM										O=C1c2[nH]c3ccccc3c2C(=O)c2cnc3cc(Br)ccc3c21	> 4000 nM	
1400 nM	> 4000 nM	> 50000 nM	> 4000 nM	10000 nM	> 4000 nM	> 4000 nM			> 4000 nM								c1ccc2c(c1)ncc1cc3[nH]c4ccccc4c3cc12	> 4000 nM	> 4000 nM
> 4000 nM	> 4000 nM	> 50000 nM	> 4000 nM	> 50000 nM	> 4000 nM	> 4000 nM			> 4000 nM								c1ccc2c(c1)ccc1cc3c(cc12)[nH]c1ccccc13	> 4000 nM	> 4000 nM
290 nM	220 nM	700 nM	600 nM	1100 nM	270 nM	1500 nM	1130 nM										O=C1c2[nH]c3ccccc3c2C(=O)c2cnc3ccc(Br)cc3c21	1400 nM	
270 nM	660 nM	> 4000 nM	> 4000 nM	2250 nM	400 nM	> 4000 nM	> 4000 nM										O=C1c2[nH]c3ccccc3c2C(=O)c2cnc3cc(F)c(Br)cc3c21	> 4000 nM	
430 nM	> 4000 nM	28000 nM	> 4000 nM	10000 nM	> 4000 nM	> 4000 nM			> 4000 nM								Clc1ccc2c(c1)ncc1cc3c(cc12)[nH]c1ccccc13	> 4000 nM	> 4000 nM
50 nM	270 nM	30000 nM	> 4000 nM	40 nM	> 4000 nM	> 4000 nM			> 4000 nM								Cc1c2cnc3cc(F)ccc3c2cc2[nH]c3ccccc3c12	> 4000 nM	> 4000 nM
1800 nM	> 4000 nM	> 4000 nM	> 4000 nM	> 4000 nM	1800 nM	> 4000 nM	> 4000 nM										O=C1c2[nH]c3ccccc3c2C(=O)c2cnc3cc(Cl)c(Cl)cc3c21	> 4000 nM	
10 nM	130 nM	1200 nM	1200 nM	140 nM	1250 nM												Nc1nc2cc(F)ccc2c2cc3[nH]c4ccccc4c3cc12	1350 nM	
> 4000 nM	110 nM	> 4000 nM	> 4000 nM	> 4000 nM	> 4000 nM	> 4000 nM	> 4000 nM										O=C1c2[nH]c3ccccc3c2C(=O)c2cnc3cc4c(cc3c21)OCO4	> 4000 nM	
> 4000 nM	> 4000 nM	> 4000 nM	> 4000 nM	> 4000 nM	> 4000 nM	> 4000 nM	> 4000 nM										O=C1c2cnc3c(Cl)cccc3c2C(=O)c2[nH]c3ccccc3c21	> 4000 nM	
530 nM	950 nM	1000 nM	1200 nM	1050 nM	900 nM											38%	Nc1nc2cc(Cl)ccc2c2cc3[nH]c4ccccc4c3cc12	1100 nM	

Compound	GI50 (HeLa)	GI50 (MCF7)	GI50 (HCT-116 [1])	GI50 (U-251)	GI50 (NCI-H460)	GI50 (MDA-MB-231)	GI50 (Jurkat)	GI50 (HCT-116 [2])	inhibition [3]	GI50 (A549)	inhibition [4]	IC50 [5]	IC90 [5]	inhibition [5]	inhibition [6]	Activity [7]	Activity (Calf thymus DNA)	GI50 (SiHa)	GI50 (HEK293)
CC[C@@]1(O)C(=O)OCc2c1cc1n(c2=O)Cc2cc3ccccc3nc2-1 [CAMPTOTHECIN]	190 nM	60 nM	50 nM	10 nM	5.7 nM	400 nM	60 nM	195 nM										550 nM	
